The source of these data is patent publication US20130281361A1, “METHODS OF TREATING AND PREVENTING RHINOVIRUS INFECTION” (priority 2010, published 2013).

“Also recorded” adds a separate entry of the source. No end group written: not given here.

In one test the test system is rhinovirus (Rv16). As to the kind of experiment: Rhinovirus (Rv16) infectivity: virus incubated with peptide, titer quantified by TCID50 assay using H1-HeLa cells. The class given is cell-based. To be noted: for concentration at which maximal efficacy was reached / reduction of rhinovirus titer at maximal efficacy: Rv16, 1 hour at 37° C.; for reduction of rhinovirus titer at maximal efficacy: at the concentration given under E5. As to the method:
To determine if β-defensins had antiviral activity against rhinovirus, recombinant human β-defensins (Peprotech, Rocky Hill, N.J.) were used in assays with rhinovirus (Rv16). Recombinant β-defensin proteins were diluted in PBS to the desired concentrations (0.25-1.25 μg/mL). Virus was added to each tube to a final volume of 40 μL and incubated for 1 hour at 37° C. plus 5% CO2. After incubation, 200 uL of cell culture media was added to each tube and viral titers were quantified in a 50% Tissue Culture Infectious Dose (TCID50) assay using H1-HeLa cells. The TCID50 assay is a standard endpoint dilution assay that is used to quantify how much of a given virus is present in a sample. The limit of detection for rhinovirus in the assay was 1.2 log10 TCID50.
Human α-defensins and LL-37, a broadly expressed antimicrobial peptide from the cathelicidin family, were also tested for antiviral activity against rhinovirus. Recombinant human α-defensins (HNP-1, HNP-3 and HNP-5) (Pepnet, Louisville, Ky.) and recombinant LL-37 (Pepnet, Louisville, Ky.) were used in assays with rhinovirus (Rv16) to determine their antiviral activity. Recombinant HBD-3 (Peprotech, Rocky Hill, N.J.) was used as a control. The recombinant proteins were diluted in PBS to the desired concentrations (see FIG. 2). Virus was added to each tube to a final volume of 40 μL and incubated for 1 hour at 37° C. plus 5% CO2. After incubation, 200 μL of cell culture media was added to each tube and the concentration of virus was quantified by TCID50 assay using H1-HeLa cells. The limit of detection for rhinovirus in the assay was 1.2 log10 TCID50/mL.

The test system of a further test is papillomavirus. To be noted: background literature; cited from earlier work.
Another test deals with adenovirus. To be noted: background literature; cited from earlier work.
The next test has as its system rhinovirus. To be noted: Proud et al., J Immunol 172:4637-4645, 2004; cited from earlier work.

For “human β-defensin 4 (EFELDRICGYGTARCRKKCRSQEYRIGRCPNTYACCLRKWDESLLNRTKP; ends and bridges not checked; cysteine pairing not given here; UniProt Q8WTQ1 23-72, looked up) [HBD-4, recombinant human β-defensin (Peprotech)]”, in the test on rhinovirus (Rv16) (Example 1, FIG. 1), the “antiviral activity against rhinovirus (Rv16), in words” value (“antiviral activity against rhinovirus” below) is given as “significantly reduced viral concentration; also recorded: exhibited antiviral activity”.
For “human β-defensin 3 (GIINTLQKYYCRVRGGRCAVLSCLPKEEQIGKCSTRGRKCCRRKK; ends and bridges not checked; cysteine pairing not given here; UniProt P81534 23-67, looked up) [HBD-3, recombinant human β-defensin (Peprotech)]”, the “antiviral activity against rhinovirus” value is listed as “significantly reduced viral concentration; also recorded: exhibited antiviral activity” in the test on rhinovirus (Rv16) (Example 1, FIG. 1) and “most susceptible” with rhinovirus (Rv16) (Example 2, FIG. 2).
Consider human neutrophil peptide 1 [HNP-1], for which the “antiviral activity against papillomavirus” value in the test with papillomavirus is “antiviral activity was observed”. For the same molecule, in the test on rhinovirus (Rv16) (Example 2, FIG. 2), the “antiviral activity against rhinovirus” value is “exhibited antiviral activity”; the “concentration at which maximal efficacy was reached” value (shortened to “concentration”) was 5 µg/mL; the “reduction of rhinovirus titer at maximal efficacy” value (shortened to “reduction of rhinovirus titer”) amounted to 1 Log10 TCID50/mL. Besides, the “antiviral activity against adenovirus” value in the test with adenovirus is “antiviral activity was observed”.
In the case of “human β-defensin 1 (DHYNCVSSGGQCLYSACPIFTKIQGTCYRGKAKCCK; ends and bridges not checked; cysteine pairing not given here; UniProt P60022 33-68, looked up) [HBD-1, recombinant human β-defensin (Peprotech)]”, the “antiviral activity against papillomavirus” value in the test on papillomavirus is given as “antiviral activity was observed”. Also, the “antiviral activity against rhinovirus” value with rhinovirus (Rv16) (Example 1, FIG. 1) is reported as “significantly reduced viral concentration; also recorded: exhibited antiviral activity”. Besides, the “antiviral activity against adenovirus” value in the test with adenovirus is reported as “antiviral activity was observed”.
With human β-defensin 2 [HBD-2], the “antiviral activity against papillomavirus” value in the test on papillomavirus is “not”. In the test with rhinovirus (Rv16) (Example 1, FIG. 1), the “antiviral activity against rhinovirus” value was “significantly reduced viral concentration; also recorded: exhibited antiviral activity”. In the test on rhinovirus, the “ability to inactivate rhinovirus” value is “unable to inactivate rhinovirus”. Further, the “antiviral activity against adenovirus” value with adenovirus was “not”.
For the molecule “human defensin 5 (ATCYCRTGRCATRESLSGVCEISGRLYRLCCR; ends and bridges not checked; cysteine pairing not given here; UniProt Q01523 63-94, looked up, fragment) [HD5, human α-defensin]”, the “antiviral activity against papillomavirus” value in the test with papillomavirus is given as “antiviral activity was observed”. Further, in the test on adenovirus, the “antiviral activity against adenovirus” value is recorded as “antiviral activity was observed”.
For the molecule human neutrophil peptide 3 [HNP-3], in the test with rhinovirus (Rv16) (Example 2, FIG. 2), the “antiviral activity against rhinovirus” value was “exhibited antiviral activity”; the “concentration” value came out at 2.5 µg/mL; the “reduction of rhinovirus titer” value is reported as 2.3 Log10 TCID50/mL.

B1: HNP-5: recombinant human α-defensin (Pepnet), α-5; probably human defensin 5 (HD5) (protein, UniProt Q01523 20-94, looked up)
Defensin alpha 5: ESLQERADEATTQKQSGEDNQDLAISFAGNGLSALRTSGSQARATCYCRTGRCATRESLSGVCEISGRLYRLCCR
modifications: Defensin-5 recombinant
Regarding B1, in the test with rhinovirus (Rv16) (Example 2, FIG. 2), the “antiviral activity against rhinovirus” value is recorded as “most effective; also recorded: exhibited antiviral activity”; the “concentration” value was 2 µg/mL; the “reduction of rhinovirus titer” value is 2.5 Log10 TCID50/mL.
